The values that follow come from BindingDB's records for doi:10.1021/jm9800144 (Smithkline Beecham, 1998).

This test deals with V-ATPase (Gallus gallus). Description: Compound was tested for inhibition of V-ATPase from Chicken osteoclasts (cOc).

Broadly, the IC50 is the concentration needed to halve the response being measured. A low value points to higher potency. As for `COC(=O)/C(=C\C=C\c1cc2cc(Cl)c(Cl)cc2[nH]1)OC` [(2E,4E)-5-(5,6-Dichloro-1H-indol-2-yl)-2-methoxy-penta-2,4-dienoic acid methyl ester], the IC50 worked out at 1.9 µM. That is a single-digit micromolar value.
